Test results as given in patent US20250368624A1, “M24B AMINOPEPTIDASE INHIBITORS FOR CARD8 INFLAMMASOME ACTIVATION” (Memorial Sloan-Kettering Cancer Center, priority 2022, published 2025).

How the values were obtained:
[1] = system: MV4;11 CASP1-/- cells; experiment: CellTiter-Glo cell viability, CASP1-/- MV4;11 cells; type: cell-based; conditions: Homo sapiens, MV4-11; 24 h, CTG
Method: Cloning. CASP1^−/− MV4;11 cells^12; CARD8^−/− MV4;11, THP-1, OCI-AML2 cells^14; DPP8/9^−/− THP-1^12; PEPD^−/−, XPNPEP1^−/−, PEPD XPNPEP1^−/− THP-1 cells were generated. Plasmids for CARD8 variants, CASP1, GSDMD, dTAG-CARD8^ZUC were cloned as described previously (Hollingsworth et al., 2021; Johnson et al., 2018; Sharif et al., 2021).
(§1) CellTiter-Glo cell viability and CytoTox-Fluor cell death assays. Cells were plated (2,000 cells per well) in white, 384-well clear-bottom plates (Corning) using an EL406 Microplate Washer/Dispenser (BioTek) in 25 μL final volume of medium. To the cell plates were added compounds at different concentrations using a pintool (CyBio) and the plates were allowed to incubate in the incubator. After incubation for indicated times, CytoTox-Fluor reagent (Promega, G9262) was added according to the manufacturer's protocol. The assay plates were then incubated for another 30 min before fluorescence was recorded using a Cytation 5 Cell Imaging Multi-Mode Reader (BioTek). Next, CellTiter-Glo reagent (Promega, G7573) was subsequently added to the assay plates following the manufacturer's protocol. Assay plates were shaken on an orbital shaker for 2 min and incubated at 25° C. for 10 min. Luminescence was then read using a Cytation 5 Cell Imaging Multi-Mode Reader (BioTek).

[2] = Stability in cell culture supernatants; type: in vitro ADME; conditions: cell culture supernatants
[3] = system: OCI-AML2 cells; experiment: CellTiter-Glo cell viability, OCI-AML2 cells (WT, CARD8-/-); type: cell-based; conditions: OCI-AML2 WT vs CARD8-/-, 24 h, CTG
Method: as §1

[4] = system: MV4;11 cells; experiment: Propidium iodide uptake, MV4;11 cells (WT, CASP1-/-, CARD8-/-); type: cell-based; conditions: MV4;11 WT vs CASP1-/- or CARD8-/-, 6.25 μM
Method: (§2) Propidium iodideflux analysis. 2×10^4 MV4;11 or OCI-AML2 cells were plated in 384-well, black, clear-bottom plate (Corning) in RPMI medium. Cells were then treated as indicated and propidium iodide (PI) was added at a final concentration of 10 μM. PI fluorescence was measured at (Ex/Em: 535/617 nm) recorded at 37° C. every 5 mins in a Cytation 5 Cell Imaging Multi-Mode Reader (BioTek). The obtained measurements were baseline corrected to vehicle/DMSO and normalized to maximum response.

[5] = system: OCI-AML2 cells; experiment: Propidium iodide uptake, OCI-AML2 cells; type: cell-based; conditions: 6.25 μM, compared to CQ31
Method: as §2

[6] = system: N/TERT-1 keratinocytes; experiment: Cell viability of N/TERT-1 keratinocytes (NLRP1 inflammasome); type: cell-based, human; conditions: VbP 10 μM, CQ compounds 20 μM, 24 h, CTG
Method: Cell Culture. HEK293T, THP-1, RAW264.7 cells were purchased from ATCC. MV4;11, OCI-AML2 cells were purchased from DSMZ. N/TERT1 cells were a gift from the Rheinwald Lab (Dickson et al., 2000). HEK293T and RAW264.7 cells were grown in Dulbecco's Modified Eagle's Medium (DMEM) with L-glutamine and 10% fetal bovine serum (FBS). N/TERT1 cells were grown in Keratinocyte serum free medium (KSFM) supplemented with 1× penicillin/streptomycin, bovine pituitary extract (25 μg/ml) and epidermal growth factor (EGF) (0.2 ng/ml). All other cell lines were grown in Roswell Park Memorial Institute (RPMI) medium 1640 with L-glutamine and 10% fetal bovine serum (FBS). All cells were grown at 37° C. in a 5% CO2 atmosphere incubator. Cell lines were regularly tested for mycoplasma using the MycoAlert™ Mycoplasma Detection Kit (Lonza).
as §1

[7] = De-esterification in cell culture; type: in vitro ADME; conditions: after 24 h

Structure (SMILES)	IC50 [1] [µM]	remained intact after 24 h ([2]; 24 h) [%]	cell death [3]	PI uptake [4]	lytic cell death by uptake of propidium iodide [5]	cell death in N/TERT-1 keratinocytes [6]	time to conversion to CQ04 [2] [min]	de-esterification to CQ04 in cell culture [7]
COC(=O)[C@H](CC(C)C)NC(=O)[C@@H]1CCCN1C(=O)[C@@H](O)[C@H](N)CC(C)C [CQ80, Methyl ((2S,3R)-3-amino-2-hydroxy-5-methylhexanoyl)-L-prolyl-L-leucinate]	> 20	~50	induced cell death in WT, but not CARD8−/−	induced PI uptake in WT, but not CASP1−/− or CARD8−/−	more rapid lytic cell death	Only VbP induced cell death	–	–
COC(=O)[C@@H]1CCCN1C(=O)[C@@H](O)[C@H](N)CC(C)C [CQ31]	> 100	–	induced cell death in WT, but not CARD8−/−	induced PI uptake in WT, but not CASP1−/− or CARD8−/−	–	Only VbP induced cell death	≤ 30	completely de-esterified
